Results reported in ChEMBL document CHEMBL1141928, “Non-peptidic alpha(v)beta3 antagonists containing indol-1-yl propionic acids” (Bioorg Med Chem Lett, 2005).

Test system: not listed separately
Assay: Clearance in mice after intravenous dosage
Assay type: ADME, organism-based
Settings: mouse, in vivo

clearance	SMILES
13 mL/min/kg	O=C(O)CC(c1ccc2c(c1)OCO2)n1ccc2cc(OCCc3ccc4c(n3)NCCC4)ccc21 (centres undefined)

Test system: not listed separately
Assay: Half life in mice after intravenous dosage
Assay type: ADME, organism-based
Settings: mouse, in vivo

half-life	SMILES
1.5 h	O=C(O)CC(c1ccc2c(c1)OCO2)n1ccc2cc(OCCc3ccc4c(n3)NCCC4)ccc21 (centres undefined)

Test system: not listed separately
Assay: Bioavailability in mice after […] dosage
Assay type: ADME, organism-based
Settings: mouse, in vivo

bioavailability	SMILES
73%	O=C(O)CC(c1ccc2c(c1)OCO2)n1ccc2cc(OCCc3ccc4c(n3)NCCC4)ccc21 (centres undefined)

Target: Integrin alpha-V/beta-3 (Homo sapiens, UniProt P05106+P06756)
Sequence (P05106 27-788 limits assumed): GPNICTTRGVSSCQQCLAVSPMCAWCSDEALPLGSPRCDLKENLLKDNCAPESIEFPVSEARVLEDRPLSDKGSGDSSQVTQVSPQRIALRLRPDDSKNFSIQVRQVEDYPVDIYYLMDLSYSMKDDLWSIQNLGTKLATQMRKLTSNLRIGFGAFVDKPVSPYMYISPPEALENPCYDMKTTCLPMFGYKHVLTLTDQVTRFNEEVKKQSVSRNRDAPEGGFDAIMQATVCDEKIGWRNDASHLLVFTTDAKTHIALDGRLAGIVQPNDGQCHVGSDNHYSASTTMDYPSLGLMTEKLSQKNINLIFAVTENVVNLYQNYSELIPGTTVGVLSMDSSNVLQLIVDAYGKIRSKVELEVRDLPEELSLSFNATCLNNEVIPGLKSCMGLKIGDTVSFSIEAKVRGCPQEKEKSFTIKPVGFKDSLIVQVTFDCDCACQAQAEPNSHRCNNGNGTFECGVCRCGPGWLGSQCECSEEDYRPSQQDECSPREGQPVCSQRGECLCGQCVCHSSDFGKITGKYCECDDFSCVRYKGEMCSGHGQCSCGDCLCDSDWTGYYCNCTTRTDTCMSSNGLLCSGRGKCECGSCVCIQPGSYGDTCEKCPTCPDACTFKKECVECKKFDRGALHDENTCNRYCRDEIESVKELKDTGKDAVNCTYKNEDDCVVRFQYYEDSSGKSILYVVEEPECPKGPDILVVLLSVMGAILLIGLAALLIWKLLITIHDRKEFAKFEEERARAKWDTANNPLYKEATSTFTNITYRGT
Sequence (P06756 31-889 limits assumed): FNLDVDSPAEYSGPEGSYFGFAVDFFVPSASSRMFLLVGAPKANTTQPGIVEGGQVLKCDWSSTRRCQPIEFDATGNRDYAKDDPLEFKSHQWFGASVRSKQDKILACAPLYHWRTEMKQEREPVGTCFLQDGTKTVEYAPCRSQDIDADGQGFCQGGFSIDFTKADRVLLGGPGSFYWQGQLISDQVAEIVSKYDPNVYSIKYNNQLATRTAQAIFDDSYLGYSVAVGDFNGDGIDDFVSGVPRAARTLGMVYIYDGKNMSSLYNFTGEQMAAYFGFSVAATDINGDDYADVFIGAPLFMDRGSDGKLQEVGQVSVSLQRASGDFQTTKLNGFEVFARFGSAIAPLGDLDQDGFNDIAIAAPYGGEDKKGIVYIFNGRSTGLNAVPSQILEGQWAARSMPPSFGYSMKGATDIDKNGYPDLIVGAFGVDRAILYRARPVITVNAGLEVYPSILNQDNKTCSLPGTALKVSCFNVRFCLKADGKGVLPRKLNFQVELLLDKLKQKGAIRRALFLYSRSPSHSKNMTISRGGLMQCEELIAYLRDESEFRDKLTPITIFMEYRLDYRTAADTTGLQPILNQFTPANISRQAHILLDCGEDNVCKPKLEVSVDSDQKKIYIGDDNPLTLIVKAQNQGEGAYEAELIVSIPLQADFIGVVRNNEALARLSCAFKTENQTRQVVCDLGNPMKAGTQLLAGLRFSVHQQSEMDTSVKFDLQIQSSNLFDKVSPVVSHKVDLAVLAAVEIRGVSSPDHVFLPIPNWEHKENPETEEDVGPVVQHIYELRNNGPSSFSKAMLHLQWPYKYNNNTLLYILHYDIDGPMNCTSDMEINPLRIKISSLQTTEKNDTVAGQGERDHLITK
Sequence (P06756 891-1048 limits assumed): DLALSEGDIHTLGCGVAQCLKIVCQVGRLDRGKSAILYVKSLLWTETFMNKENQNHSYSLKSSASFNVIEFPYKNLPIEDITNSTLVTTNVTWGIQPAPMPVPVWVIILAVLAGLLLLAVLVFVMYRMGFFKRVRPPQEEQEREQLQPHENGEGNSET
Assay: Inhibitory concentration against alphaV-beta3 integrin
Assay type: protein-complex assay
Settings: not given

IC50	SMILES
0.8 nM	COc1cccc(C(CC(=O)O)n2ccc3cc(OCCc4ccc5c(n4)NCCC5)ccc32)c1 (centres undefined)
0.7 nM	COc1ccc(C(CC(=O)O)n2ccc3cc(OCCc4ccc5c(n4)NCCC5)ccc32)cc1 (centres undefined)
55 nM	O=C(O)CC(c1ccccc1Cl)n1ccc2cc(OCCc3ccc4c(n3)NCCC4)ccc21 (centres undefined)
0.26 nM	N#Cc1cncc(C(CC(=O)O)n2ccc3cc(OCCc4ccc5c(n4)NCCC5)ccc32)c1 (centres undefined)
0.25 nM	O=C(O)CC(c1cccnc1)n1ccc2cc(OCCc3ccc4c(n3)NCCC4)ccc21 (centres undefined)
0.38 nM	O=C(O)CC(c1ccc2c(c1)OCO2)n1ccc2cc(OCCc3ccc4c(n3)NCCC4)ccc21 (centres undefined)
1900 nM	O=C(O)C(Cc1ccccc1)Cn1ccc2cc(OCCCNc3ccccn3)ccc21 (centres undefined)
23 nM	CCCC(CC(=O)O)n1ccc2cc(CCCc3ccc4c(n3)NCCC4)ccc21 (centres undefined)
0.5 nM	O=C(O)CC(c1cccc(Cl)c1)n1ccc2cc(OCCc3ccc4c(n3)NCCC4)ccc21 (centres undefined)
200 nM	O=C(O)CC(c1ccccc1)n1ccc2cc(OCCONC3=NCCN3)ccc21 (centres undefined)
> 20000 nM	O=C(O)c1ccccc1-n1ccc2cc(OCCCNc3ccccn3)ccc21
8 nM	O=C(O)CC(c1ccc2c(c1)OCO2)n1ccc2cc(OCCc3ccc4c(n3)NCCO4)ccc21 (centres undefined)
78 nM	CCCC(CC(=O)O)n1ccc2cc(NC(=O)Cc3ccc4c(n3)NCCC4)ccc21 (centres undefined)
1.2 nM	O=C(O)CC(c1ccccn1)n1ccc2cc(OCCc3ccc4c(n3)NCCC4)ccc21 (centres undefined)
0.7 nM	O=C(O)CC(c1ccc(F)cc1)n1ccc2cc(OCCc3ccc4c(n3)NCCC4)ccc21 (centres undefined)
1.1 nM	COc1ccccc1C(CC(=O)O)n1ccc2cc(OCCc3ccc4c(n3)NCCC4)ccc21 (centres undefined)

IC50	SMILES
> 20000 nM	O=C(O)c1ccc(-n2ccc3cc(OCCCNc4ccccn4)ccc32)cc1
37 nM	O=C(O)CC(c1cccc2ccccc12)n1ccc2cc(OCCc3ccc4c(n3)NCCC4)ccc21 (centres undefined)
0.38 nM	O=C(O)CC(c1cnc2ccccc2c1)n1ccc2cc(OCCc3ccc4c(n3)NCCC4)ccc21 (centres undefined)
36 nM	CNc1cccc(CCOc2ccc3c(ccn3CCC(=O)O)c2)n1
130 nM	O=C(O)CC(c1cccnc1)n1ccc2cc(OCC(F)(F)c3ccc4c(n3)NCCC4)ccc21 (centres undefined)
0.46 nM	CS(=O)(=O)c1cncc(C(CC(=O)O)n2ccc3cc(OCCc4ccc5c(n4)NCCC5)ccc32)c1 (centres undefined)
0.25 nM	COc1cncc(C(CC(=O)O)n2ccc3cc(OCCc4ccc5c(n4)NCCC5)ccc32)c1 (centres undefined)
0.3 nM	CS(=O)(=O)c1ccc(C(CC(=O)O)n2ccc3cc(OCCc4ccc5c(n4)NCCC5)ccc32)cn1 (centres undefined)
5 nM	CCCC(CC(=O)O)n1ccc2cc(OCCc3ccc4c(n3)NCCC4)ccc21 (centres undefined)
40 nM	O=C(O)CC(c1ccc(-c2ccccc2)cc1)n1ccc2cc(OCCc3ccc4c(n3)NCCC4)ccc21 (centres undefined)
460 nM	CC(Cn1ccc2cc(OCCCNc3ccccn3)ccc21)C(=O)O (centres undefined)
0.9 nM	O=C(O)CC(c1ccncc1)n1ccc2cc(OCCc3ccc4c(n3)NCCC4)ccc21 (centres undefined)
1 nM	O=C(O)CC(c1ccccc1)n1ccc2cc(OCCc3ccc4c(n3)NCCC4)ccc21 (centres undefined)
37 nM	O=C(O)CC(c1ccc2ccccc2c1)n1ccc2cc(OCCc3ccc4c(n3)NCCC4)ccc21 (centres undefined)
2000 nM	CCCC(Cn1ccc2cc(OCCCNc3ccccn3)ccc21)C(=O)O (centres undefined)
